In ChEMBL document CHEMBL3351608, “2-Phenylindole and Arylsulphonamide: Novel Scaffolds Bactericidal against Mycobacterium tuberculosis” (ACS Med Chem Lett, 2014):
In brackets after ≈: the same amount, converted by molar mass.

Tests used:
[1] = system: Mycobacterium tuberculosis; assay: microbe, parasite or virus in culture; conditions: 120 h
Description: Antimicrobial activity against Mycobacterium tuberculosis assessed as growth inhibition after 5 days by microdilution method

[2] = system: Mycobacterium tuberculosis; assay: microbe, parasite or virus in culture; conditions: H37Rv, 120 h
Description: Antimicrobial activity against wild-type Mycobacterium tuberculosis H37Rv assessed as growth inhibition after 5 days by microdilution method

[3] = Aqueous solubility of the compound; format: physicochemical; conditions: buffer
[4] = Lipophilicity, log D of the compound; format: physicochemical; conditions: octanol/water
[5] = system: Mycobacterium tuberculosis; format: functional; conditions: 120 h
[6] = system: Mycobacterium tuberculosis; assay: Bactericidal activity against Mycobacterium tuberculosis H37Rv after 5 days; format: functional; conditions: 120 h
[7] = system: Mycobacterium tuberculosis; assay: Bactericidal activity against Mycobacterium tuberculosis H37Rv infected in human THP1 cells assessed as reduction in CFU at 1 to 4 times MIC by time-kill method; format: functional, THP-1
Escherichia coli = assay: Antimicrobial activity against Escherichia coli; format: functional
[8] = system: Mycobacterium tuberculosis; assay: Bactericidal activity against hypoxia induced nonreplicating persistent Mycobacterium tuberculosis H37Rv assessed as concentration required to reduce >/= 2 log10 CFU/ml after 7 days; format: functional
[9] = target: DNA gyrase subunit A/DNA gyrase subunit B (Mycobacterium tuberculosis (strain ATCC 25618 / H37Rv), UniProt P9WG45+P9WG47)
Description: Inhibition of Mycobacterium tuberculosis DNA gyrase-mediated relaxed pBR322 DNA supercoiling by gel electrophoresis

Haemophilus influenzae = assay: Antimicrobial activity against Haemophilus influenzae; format: functional
[10] = Cytotoxicity against human THP1 cells assessed as cell viability after 72 hrs by resazurin staining-based fluorimetric analysis; conditions: THP-1 cells
Staphylococcus aureus = assay: Antimicrobial activity against Staphylococcus aureus; format: functional
Streptococcus pneumoniae = assay: Antimicrobial activity against Streptococcus pneumoniae; format: functional
Klebsiella pneumoniae = assay: Antimicrobial activity against Klebsiella pneumoniae; format: functional
[11] = target: T1, Enoyl-[acyl-carrier-protein] reductase [NADH] (Mycobacterium tuberculosis, UniProt P9WGR1)
T1 sequence (P9WGR1 whole entry): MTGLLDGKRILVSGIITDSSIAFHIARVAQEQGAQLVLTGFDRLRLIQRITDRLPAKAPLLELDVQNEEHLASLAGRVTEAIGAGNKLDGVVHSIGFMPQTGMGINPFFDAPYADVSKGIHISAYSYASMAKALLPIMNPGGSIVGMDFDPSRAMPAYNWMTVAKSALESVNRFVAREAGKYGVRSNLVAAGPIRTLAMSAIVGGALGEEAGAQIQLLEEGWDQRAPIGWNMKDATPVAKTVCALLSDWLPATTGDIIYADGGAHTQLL
Description: Inhibition of Mycobacterium tuberculosis InhA using dodecyl coA as substrate by LC-MS/MS analysis

[12] = system: Mycolicibacterium smegmatis; assay: Inhibition of oxidative phosphorylation in Mycobacterium smegmatis membrane vesicles assessed as inhibition of NADH driven ATP synthesis by luciferin/luciferase assay; format: functional
Pseudomonas aeruginosa = assay: Antimicrobial activity against Pseudomonas aeruginosa; format: functional

Sequence of DNA gyrase subunit A/DNA gyrase subunit B (P9WG45 whole entry): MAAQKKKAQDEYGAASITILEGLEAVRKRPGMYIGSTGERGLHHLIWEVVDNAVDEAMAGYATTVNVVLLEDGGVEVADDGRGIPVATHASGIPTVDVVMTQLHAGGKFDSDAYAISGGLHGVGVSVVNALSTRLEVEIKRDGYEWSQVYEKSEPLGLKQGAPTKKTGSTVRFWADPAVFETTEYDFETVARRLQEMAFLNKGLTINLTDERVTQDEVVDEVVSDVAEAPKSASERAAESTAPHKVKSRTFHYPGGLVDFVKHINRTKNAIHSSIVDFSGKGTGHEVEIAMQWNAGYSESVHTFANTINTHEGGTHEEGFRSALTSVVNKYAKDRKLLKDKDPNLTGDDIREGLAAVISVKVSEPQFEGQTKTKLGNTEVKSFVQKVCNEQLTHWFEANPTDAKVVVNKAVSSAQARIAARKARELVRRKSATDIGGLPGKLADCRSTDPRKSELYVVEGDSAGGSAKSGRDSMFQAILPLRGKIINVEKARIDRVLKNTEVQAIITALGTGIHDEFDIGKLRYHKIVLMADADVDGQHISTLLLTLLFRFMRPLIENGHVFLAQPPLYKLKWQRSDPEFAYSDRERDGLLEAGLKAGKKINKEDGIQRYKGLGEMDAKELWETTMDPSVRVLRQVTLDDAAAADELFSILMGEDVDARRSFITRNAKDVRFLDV
Sequence of DNA gyrase subunit A/DNA gyrase subunit B (P9WG47 whole entry): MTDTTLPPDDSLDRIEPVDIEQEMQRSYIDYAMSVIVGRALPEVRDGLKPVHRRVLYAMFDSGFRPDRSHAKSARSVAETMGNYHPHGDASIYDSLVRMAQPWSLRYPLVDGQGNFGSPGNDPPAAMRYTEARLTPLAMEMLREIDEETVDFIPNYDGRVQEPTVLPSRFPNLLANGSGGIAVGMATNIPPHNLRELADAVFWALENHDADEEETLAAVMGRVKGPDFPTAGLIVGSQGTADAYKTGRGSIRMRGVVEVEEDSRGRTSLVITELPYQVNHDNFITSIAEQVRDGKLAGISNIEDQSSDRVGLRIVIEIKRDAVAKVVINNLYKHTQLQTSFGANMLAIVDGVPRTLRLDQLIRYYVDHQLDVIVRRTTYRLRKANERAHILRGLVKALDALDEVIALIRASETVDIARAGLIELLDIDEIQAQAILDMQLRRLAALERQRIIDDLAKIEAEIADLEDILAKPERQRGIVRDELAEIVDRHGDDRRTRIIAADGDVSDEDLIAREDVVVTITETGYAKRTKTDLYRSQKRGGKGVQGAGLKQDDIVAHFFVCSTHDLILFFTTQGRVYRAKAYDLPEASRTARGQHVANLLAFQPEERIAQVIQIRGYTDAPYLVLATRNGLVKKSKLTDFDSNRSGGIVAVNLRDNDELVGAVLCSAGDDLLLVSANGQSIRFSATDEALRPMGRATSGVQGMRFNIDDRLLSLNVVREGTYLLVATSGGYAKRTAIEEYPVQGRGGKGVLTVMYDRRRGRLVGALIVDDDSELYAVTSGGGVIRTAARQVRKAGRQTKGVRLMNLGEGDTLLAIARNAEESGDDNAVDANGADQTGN

Structure (SMILES)	MIC [1] [µM]	MIC [2] [µM]	solubility [3] [µM]	logD [4]	MIC [5] [µM]	MBC [6] [µM]	fold change (FC) [7]	MIC (Escherichia coli) [µM]	Activity [8] [µM]	IC50 [9] [µM]	MIC (Haemophilus influenzae) [µM]	CC50 at 72 h [10] [µM]	MIC (Staphylococcus aureus) [µM]	MIC (Streptococcus pneumoniae) [µM]	MIC (Klebsiella pneumoniae) [µM]	IC50 [11] [µM]	IC50 [12] [µM]	MIC (Pseudomonas aeruginosa) [µM]
CC1COC2(CCN(c3nc(=O)c4cc(C(F)(F)F)cc([N+](=O)[O-])c4s3)CC2)O1 (stereo not drawn)	0.01 (≈ 0.00431 µg/mL)	0.01 (≈ 0.00431 µg/mL)	–	–	–	–	–	–	–	–	–	–	–	–	–	–	–	–
Cc1cccc2c(CN3CCCC3)c(-c3ccccc3)[nH]c12	–	–	752 (≈ 218 µg/mL)	1.8	–	–	–	–	–	–	–	–	–	–	–	–	–	–
COCCN(C1CCN(Cc2c(-c3ccccc3)[nH]c3c(C)cccc23)C1)S(C)(=O)=O (stereo not drawn)	0.8 (≈ 0.353 µg/mL)	0.8 (≈ 0.353 µg/mL)	5.4 (≈ 2.38 µg/mL)	3	0.8 (≈ 0.353 µg/mL)	3.8 (≈ 1.68 µg/mL)	1.5	> 200	3.1	> 100	> 200	> 64	> 200	> 200	> 200	> 100	15.6	> 200
COCCN(C1CCN(Cc2c(-c3ccccc3)[nH]c3c(OC)cccc23)C1)S(C)(=O)=O (stereo not drawn)	–	–	103 (≈ 47.1 µg/mL)	2.8	–	–	–	–	–	–	–	–	–	–	–	–	–	–
O=S(=O)(NC1CCN(Cc2ccncc2)CC1)c1ccc(-n2cccn2)cc1	1.6 (≈ 0.636 µg/mL)	3.3 (≈ 1.31 µg/mL)	149 (≈ 59.2 µg/mL)	2.6	3.3 (≈ 1.31 µg/mL)	50 (≈ 19.9 µg/mL)	–	> 200	25	> 100	> 200	> 64	> 200	> 200	> 200	> 100	> 70	> 200
Cc1cc(-n2cccn2)ccc1S(=O)(=O)NC1CCN(Cc2ccncc2)CC1	–	0.8 (≈ 0.329 µg/mL)	66 (≈ 27.2 µg/mL)	2.3	0.8 (≈ 0.329 µg/mL)	1.6 (≈ 0.658 µg/mL)	1.5	> 200	>200	–	> 200	32	> 200	> 200	> 200	–	–	> 200
O=S(=O)(NC1CCN(Cc2ccncc2)CC1)c1ccc(-n2cccn2)cn1	–	–	1000 (≈ 398 µg/mL)	1.7	–	–	–	–	–	–	–	–	–	–	–	–	–	–
Cc1cccc2c(CN3CCC(NS(C)(=O)=O)C3)c(-c3ccccc3)[nH]c12 (racemic)	–	1.6 (≈ 0.614 µg/mL)	–	–	1.6 (≈ 0.614 µg/mL)	1.6 (≈ 0.614 µg/mL)	–	> 200	>200	–	> 200	32	> 200	> 200	> 200	–	–	> 200
COc1nc2ccc(Br)cc2cc1[C@@H](c1ccccc1)[C@@](O)(CCN(C)C)c1cccc2ccccc12 [BEDAQUILINE]	–	–	–	–	–	–	–	–	–	–	–	–	–	–	–	–	0.001	–
NNC(=O)c1ccncc1 [ISONIAZID]	> 7.5	0.5 (≈ 0.0686 µg/mL)	–	–	–	–	–	–	–	–	–	–	–	–	–	–	–	–
CO[C@H]1/C=C/O[C@@]2(C)Oc3c(C)c(O)c4c(O)c(c(/C=N/N5CCN(C)CC5)c(O)c4c3C2=O)NC(=O)/C(C)=C\C=C\[C@H](C)[C@H](O)[C@@H](C)[C@@H](O)[C@@H](C)[C@H](OC(C)=O)[C@@H]1C [RIFAMPIN]	0.003 (≈ 0.00247 µg/mL)	0.003 (≈ 0.00247 µg/mL)	–	–	–	–	–	–	–	–	–	–	–	–	–	–	–	–
